Source: US9315489B2, “Compounds and compositions for inhibiting the activity of ABL1, ABL2 and BCR-ABL1” (Novartis AG, priority 2012, dated 2016)
Like-named read-outs stand apart in the source and are kept apart here.

Assays:
ABL1 (64-515) = ABL1 (64-515) (Homo sapiens (Human), UniProt P00519); assay: Radio ABL1 (64-515) assay (radiometric filter-binding); format: biochemical
Experimental: For determination of ABL kinase activity, the radiometric filter-binding assay was used. […] Pre-incubation of enzyme with compounds (when stated) was performed by exposing the enzyme to compounds prior to addition of the substrate mixture (ATP and/or peptide substrate). […] Millipore, Volketswil, Switzerland) prepared according to the manufacturer's instructions. Filter-plates were washed 3× with 0.5% H3PO4, followed by addition of 30 μL scintillation cocktail (Microscint, Perkin Elmer) per well and then analysed in a TopCount NXT scintillation counter (Perkin Elmer). Results were expressed as IC50 values.

Ba/F3-BCR-ABL1-WT cells = assay: Ba/F3-BCR-ABL1-WT cellular proliferation assay; format: cell-based, murine; conditions: Mus musculus, read-out: Ba/F3-BCR-ABL1-WT IC50
Text: The murine bone marrow-derived cell line Ba/F3 was used to generate the appropriate cell line models. Ba/F3 cells were obtained from the German Collection of Microorganisms and Cell Cultures (DSMZ, Braunschweig and DSMZ No. ACC 300). […] These cells are referred to as Ba/F3-WT.
To generate Ba/F3 cells that depend on BCR-ABL1 expression for growth and survival, Ba/F3 cells were engineered to express BCR-ABL1 using retroviral transduction with a MSCV based retroviral vector containing a p210 BCR-ABL1expression cassette. […] These cells are referred to as Ba/F3-BCR-ABL1-WT.
Ba/F3-WT cells were maintained in RPMI1640 media with L-glutamine, HEPES (Lonza), 10% FBS (Gibco) and 5 ng/ml IL-3 (Calbiochem).
For each cell line, the cell density was adjusted to 50 000 cells/mL and 50 μL (2500 cells) added per well of a 384-well assay plate.
Test compounds were resuspended in DMSO at a concentration of 10 mM. A serial three-fold dilution of each compound with DMSO was performed in 384-well plates using the Janus Liquid Dispenser (PerkinElmer). Compound was delivered to the assay plates containing 2500 cells in a 50 μL volume via Acoustic delivery from an ATS-100 (EDC).
Cells were incubated at 37° C. in a humidified environment with 5% carbon dioxide for 48 hours. Britelite plus solution (Perkin Elmer) was prepared according to the manufacturer's instructions and 25 μL added to each well of the assay plate. […] The degree of luminescence correlates with the number of cells in each well. The effect of each inhibitor concentration can therefore be calculated and IC50 values generated.

[1] = Compound concentration in mouse brain and plasma; format: in vivo; conditions: 5 minutes after a single intravenous injection of 1 mg/kg in mice; for Kp at 5 min / concentration at 5 min: mouse; for Kp at 5 min: brain/plasma, read-out: Mean Ratio (brain/plasma); for concentration at 5 min: plasma, read-out: Mean blood (drug concentration in plasma)
Experimental: Approximately two parts volume of MeOH/water (2/8 v/v) were added to the preweighted brain samples (˜250 mg) and subsequently homogenized using Covaris™ instrument. A 50 μL aliquot was subjected to protein precipitation and analysis as described below.
Fifty μL aliquots of blood or brain homogenate from animals treated with c-ABL inhibitors were first spiked with 5 μL of the internal standard (N-(4-methyl-3-((4-(6-methylpyridin-3-yl)pyrimidin-2-yl)amino)phenyl)-4-((4-methylpiperazin-1-yl)methyl)benzamide for positive ion mode 5-chloro-N-(4-(N-(cyclohexylcarbamoyl)sulfamoyl)-phenethyl)-2-methoxybenzamide for negative ion mode, respectively), subsequently deproteinated by adding MeCN (200 μL), centrifuged, the supernatant evaporated to dryness, and re-dissolved in 100 μL of a MeOH/water (1/1 v/v). Five μL were subjected to HPLC-MS/MS analysis. Chromatographic separation from interfering endogenous and exogenous contaminants was achieved on an Phenomenex™ Polar RP reversed-phase HPLC column (particle size: 2.5 μm; column dimensions: 2×50 mm) using a linear gradient of 100% water containing 1% formic acid (A), and MeOH supplemented with 1% formic acid (B), which was run over 6.0 min from 5% to 90% B, then kept at 100% B for 1.0 min, and a subsequent 1.5 min postrun with re-equilibration of the column. The column was kept at 50° C. The flow of 350 μL/min from the HPLC system (Flux Rheos Allegro LC pump and CTC Pal autosampler) was directly introduced into the ion source of an Finnigan™ Quantum Ultra MS-detector (triple stage quadrupole mass analyzer) and subjected to heated electrospray ionization (HESI).
c-ABL inhibitors were specifically detected using multiple reaction monitoring from their quasi-molecular parent ion ([M+H]^+ or [M−H]^−) to specific daughter ions as given in the table below. Quantification of blood and brain levels of c-ABL inhibitors compounds were based on a 6-level calibration curve made in triplicate.

Sequence of ABL1 (64-515) (P00519 64-515): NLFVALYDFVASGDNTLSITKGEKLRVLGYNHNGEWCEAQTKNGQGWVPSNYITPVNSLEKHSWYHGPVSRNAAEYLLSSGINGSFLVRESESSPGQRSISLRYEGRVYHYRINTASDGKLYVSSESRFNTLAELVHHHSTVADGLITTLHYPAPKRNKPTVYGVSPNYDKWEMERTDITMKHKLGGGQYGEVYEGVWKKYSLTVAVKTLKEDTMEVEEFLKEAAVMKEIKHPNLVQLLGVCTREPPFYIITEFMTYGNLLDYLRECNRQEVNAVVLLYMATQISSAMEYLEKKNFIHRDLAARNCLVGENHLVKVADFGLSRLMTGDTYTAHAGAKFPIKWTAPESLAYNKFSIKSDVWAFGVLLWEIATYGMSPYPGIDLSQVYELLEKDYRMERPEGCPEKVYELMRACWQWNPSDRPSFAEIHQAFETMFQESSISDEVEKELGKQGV

With `COc1ncc(-c2cc(C(=O)Nc3ccc(OC(F)(F)F)cc3)ccn2)cn1` [Example 69, 2-(2-Methoxypyrimidin-5-yl)-N-(4-(trifluoromethoxy)phenyl)isonicotinamide] the IC50 (ABL1 (64-515)) was < 3 nM.

For `O=C(Nc1ccc(OC(F)(F)F)cc1)c1cncc(-c2cncnc2)c1` [Example 42, 5-(Pyrimidin-5-yl)-N-(4-(trifluoromethoxy)phenyl)nicotinamide], the IC50 (Ba/F3-BCR-ABL1-WT cells; 48 h) was 29 nM.

With `COc1ncc(-c2cc(C(=O)Nc3ccc(OC(F)(F)F)cc3)ccc2C)cn1` [Example 13, 3-(2-Methoxypyrimidin-5-yl)-4-methyl-N-(4-(trifluoromethoxy)phenyl)benzamide] the IC50 (ABL1 (64-515)) was 3 nM, the “Mean brain (drug concentration in brain)” value [1] was 4011 pmol/g and the Kp at 5 min [1] was 1.29. It also gave a concentration at 5 min [1] of 3090 nM and an IC50 (Ba/F3-BCR-ABL1-WT cells; 48 hours) of 4.9 nM.

With `O=C(Nc1ccc(OC(F)(F)F)cc1)c1ccc(Cl)c(-c2cncnc2)c1` [Example 24, 4-chloro-3-(pyrimidin-5-yl)-N-(4-(trifluoromethoxy)phenyl)benzamide] the IC50 (ABL1 (64-515)) was < 3 nM.

Molecule `Cn1cc(-c2cc(C(=O)Nc3ccc(OC(F)(F)F)cc3)ccc2F)cn1` [Example 22, 4-fluoro-3-(1-methyl-1H-pyrazol-4-yl)-N-(4-(trifluoromethoxy)phenyl)benzamide] has an IC50 (ABL1 (64-515)) of 35 nM.

For `O=C(Nc1ccc(OC(F)(F)F)cc1)c1cncc(-c2cccnc2)c1` [Example 74, N-(4-(Trifluoromethoxy)phenyl)-[3,3′-bipyridine]-5-carboxamide], the IC50 (ABL1 (64-515)) was 8.7 nM, the “Mean brain (drug concentration in brain)” value [1] was 8509 pmol/g and the Kp at 5 min [1] was 3.29. The concentration at 5 min [1] was 2580 nM and the IC50 (Ba/F3-BCR-ABL1-WT cells; 48 hours) was 30 nM.

For `O=C(Nc1ccc(OC(F)(F)F)cc1)c1cncc(-c2cccnc2O)c1` [Example 63, 2′-Hydroxy-N-(4-(trifluoromethoxy)phenyl)-[3,3′-bipyridine]-5-carboxamide], the IC50 (ABL1 (64-515)) was 77 nM.

Molecule `COc1ccc(C(=O)Nc2ccc(OC(F)(F)F)cc2)cc1-c1ccncc1` [Example 33, 4-methoxy-3-(pyridin-4-yl)-N-(4-(trifluoromethoxy)phenyl)benzamide] has an IC50 (ABL1 (64-515)) of 8.7 nM.

Molecule `COc1ncccc1-c1cncc(C(=O)Nc2ccc(OC(F)(F)F)cc2)c1` [Example 62, 2′-Methoxy-N-(4-(trifluoromethoxy)phenyl)-[3,3′-bipyridine]-5-carboxamide] has an IC50 (ABL1 (64-515)) of 69 nM.

Work on `N#Cc1cncc(-c2cccc(C(=O)Nc3ccc(OC(F)(F)F)cc3)c2)c1` [Example 3, 3-(5-Cyanopyridin-3-yl)-N-(4-(trifluoromethoxy)phenyl)benzamide] yielded an IC50 (ABL1 (64-515)) of 3.9 nM.

With `COc1ncc(-c2cc(C(=O)Nc3ccc(OC(F)(F)F)cc3)ccc2Cl)cn1` [Example 25, 4-chloro-3-(2-methoxypyrimidin-5-yl)-N-(4-(trifluoromethoxy)phenyl)benzamide] the IC50 (ABL1 (64-515)) was 8.1 nM.

Molecule `COc1ccc(C(=O)Nc2ccc(OC(F)(F)F)cc2)cc1-c1ccc(F)nc1` [Example 32, 3-(6-fluoropyridin-3-yl)-4-methoxy-N-(4-(trifluoromethoxy)phenyl)benzamide] has an IC50 (ABL1 (64-515)) of 3.4 nM.

With `COc1ccc(C(=O)Nc2ccc(OC(F)(F)F)cc2)cc1-c1ccc2c(c1)OCO2` [Example 35, 3-(Benzo[d][1,3]dioxol-5-yl)-4-methoxy-N-(4-(trifluoromethoxy)phenyl)benzamide] the IC50 (ABL1 (64-515)) was 9.9 nM.

With `O=C(Nc1ccc(OC(F)(F)F)cc1)c1ccc(OCCO)c(-c2cncnc2)c1` [Example 38, 4-(2-Hydroxyethoxy)-3-(pyrimidin-5-yl)-N-(4-(trifluoromethoxy)phenyl)benzamide] the IC50 (ABL1 (64-515)) was < 3 nM.

With `Nc1cnc(-c2cccc(C(=O)Nc3ccc(OC(F)(F)F)cc3)c2)cn1` [Example 4, 3-(5-Aminopyrazin-2-yl)-N-(4-(trifluoromethoxy)phenyl)benzamide] the IC50 (ABL1 (64-515)) was 7 nM.

Work on `COc1ncc(-c2cc(C(=O)Nc3ccc(OC(F)(F)F)cc3)ccc2F)cn1` [Example 19, 4-fluoro-3-(2-methoxypyrimidin-5-yl)-N-(4-(trifluoromethoxy)phenyl)benzamide] yielded an IC50 (ABL1 (64-515)) of 12 nM.

`O=C(Nc1ccc(CC(F)(F)F)cc1)c1cccc(-c2cncnc2)c1` [Example 12, 3-(Pyrimidin-5-yl)-N-(4-(2,2,2-trifluoroethyl)phenyl)benzamide] showed an IC50 (Ba/F3-BCR-ABL1-WT cells; 48 hours) of 148 nM.

Molecule `O=C(Nc1ccc(OC(F)(F)F)cc1)c1ccc(F)c(-c2cncnc2)c1` [Example 18, 4-fluoro-3-(pyrimidin-5-yl)-N-(4-(trifluoromethoxy)phenyl)benzamide] has an IC50 (ABL1 (64-515)) of 3.2 nM.

With `O=C(Nc1ccc(OC(F)(F)F)cc1)c1ccc(O)c(-c2cncnc2)c1` [Example 41, 4-Hydroxy-3-(pyrimidin-5-yl)-N-(4-(trifluoromethoxy)phenyl)benzamide] the IC50 (ABL1 (64-515)) was 13 nM.

With `COc1ncc(C(=O)Nc2ccc(OC(F)(F)F)cc2)cc1-c1cncnc1` [Example 49, 6-Methoxy-5-(pyrimidin-5-yl)-N-(4-(trifluoromethoxy)phenyl)nicotinamide] the IC50 (ABL1 (64-515)) was < 3 nM and the IC50 (Ba/F3-BCR-ABL1-WT cells; 48 hours) was 47 nM.

With `O=C(Nc1ccc(OC(F)(F)F)cc1)c1ccc(Cl)c(-c2ccncc2)c1` [Example 27, 4-chloro-3-(pyridin-4-yl)-N-(4-(trifluoromethoxy)phenyl)benzamide] the IC50 (ABL1 (64-515)) was 31 nM.

For `COc1ccc(C(=O)Nc2ccc(OC(F)(F)F)cc2)cc1-c1cccnc1` [Example 31, 4-methoxy-3-(pyridin-3-yl)-N-(4-(trifluoromethoxy)phenyl)benzamide], the IC50 (ABL1 (64-515)) was 3.2 nM.

`O=C(Nc1ccc(OC(F)(F)F)c(F)c1)c1cccc(-c2cncnc2)c1` [Example 9, N-(3-Fluoro-4-(trifluoromethoxy)phenyl)-3-(pyrimidin-5-yl)benzamide] gave an IC50 (ABL1 (64-515)) of 22 nM and an IC50 (Ba/F3-BCR-ABL1-WT cells; 48 hours) of 89 nM.

For `O=C(Nc1ccc(OC(F)(F)F)cc1)c1cccc(-c2ccc(CN3CCCC3)s2)c1` [Example 7, 3-(5-(Pyrrolidin-1-ylmethyl)thiophen-2-yl)-N-(4-(trifluoromethoxy)phenyl)benzamide], the IC50 (ABL1 (64-515)) was < 3 nM.

In the case of `COc1ccc(C(=O)Nc2ccc(OC(F)(F)F)cc2)cc1-c1cc[nH]n1` [Example 34, 4-methoxy-3-(1H-pyrazol-3-yl)-N-(4-(trifluoromethoxy)phenyl)benzamide], the IC50 (ABL1 (64-515)) is reported as 13 nM and the IC50 (Ba/F3-BCR-ABL1-WT cells; 48 hours) is reported as 77 nM.

With `O=C(Nc1ccc(OC(F)(F)F)cc1)c1cnc(OCCNCCO)c(-c2cncnc2)c1` [Example 50, 6-(2-((2-Hydroxyethyl)amino)ethoxy)-5-(pyrimidin-5-yl)-N-(4-(trifluoromethoxy)phenyl)nicotinamide] the IC50 (ABL1 (64-515)) was 4.2 nM.

For `O=C(Nc1ccc(OC(F)(F)F)cc1)c1cccc(-n2ccnc2)c1` [Example 8, 3-(1H-Imidazol-1-yl)-N-(4-(trifluoromethoxy)phenyl)benzamide], the IC50 (ABL1 (64-515)) was 1.9 nM.

With `O=C(Nc1ccc(OC(F)(F)F)cc1)c1ccc(F)c(-c2cccnc2)c1` [Example 20, 4-fluoro-3-(pyridin-3-yl)-N-(4-(trifluoromethoxy)phenyl)benzamide] the IC50 (ABL1 (64-515)) was 13 nM.

In the case of `CC(C)CN1CCN(CCOc2ccc(C(=O)Nc3ccc(OC(F)(F)F)cc3)cc2-c2cncnc2)CC1` [Example 39, 4-(2-(4-Isobutylpiperazin-1-yl)ethoxy)-3-(pyrimidin-5-yl)-N-(4-(trifluoromethoxy)phenyl)benzamide], the IC50 (ABL1 (64-515)) is reported as < 3 nM.

In the case of `O=C(Nc1ccc(OC(F)(F)F)cc1)c1ccc(F)c(-c2cc[nH]n2)c1` [Example 23, 4-fluoro-3-(1H-pyrazol-3-yl)-N-(4-(trifluoromethoxy)phenyl)benzamide], the IC50 (ABL1 (64-515)) is reported as 31 nM and the IC50 (Ba/F3-BCR-ABL1-WT cells; 48 hours) is reported as 693 nM.

`O=C(Nc1ccc(OC(F)(F)F)cc1)c1cccc(-c2cncnc2)c1F` [Example 60, 2-Fluoro-3-(pyrimidin-5-yl)-N-(4-(trifluoromethoxy)phenyl)benzamide] showed an IC50 (ABL1 (64-515)) of 36 nM.

For `O=C(Nc1ccc(OC(F)(F)F)cc1)c1ccc(Cl)c(-c2cccnc2)c1` [Example 26, 4-chloro-3-(pyridin-3-yl)-N-(4-(trifluoromethoxy)phenyl)benzamide], the IC50 (ABL1 (64-515)) was 13 nM.

`O=C(Nc1ccc(OC(F)(F)F)cc1)c1cc(-c2cncnc2)ccn1` [Example 72, 4-(pyrimidin-5-yl)-N-(4-(trifluoromethoxy)phenyl)picolinamide] gave an IC50 (ABL1 (64-515)) of 650 nM.

`O=C(Nc1ccc(OC(F)(F)F)cc1)c1cncc(-c2cncnc2)n1` [Example 71, 6-(pyrimidin-5-yl)-N-(4-(trifluoromethoxy)phenyl)pyrazine-2-carboxamide] gave an IC50 (ABL1 (64-515)) of 660 nM.

With `COC(=O)c1cc(-c2cccc(C(=O)Nc3ccc(OC(F)(F)F)cc3)c2)cs1` [Example 6, Methyl 4-(3-((4-(trifluoromethoxy)phenyl)carbamoyl)phenyl)thiophene-2-carboxylate] the IC50 (ABL1 (64-515)) was 3.3 nM and the IC50 (Ba/F3-BCR-ABL1-WT cells; 48 hours) was 1060 nM.

`O=C(Nc1ccc(OC(F)(F)F)cc1)c1cnc(Cl)c(-c2ncc[nH]2)c1` [Example 65, 6-Chloro-5-(1H-imidazol-2-yl)-N-(4-(trifluoromethoxy)phenyl)nicotinamide] gave an IC50 (ABL1 (64-515)) of 5 nM and an IC50 (Ba/F3-BCR-ABL1-WT cells; 48 hours) of 184 nM.

In the case of `COc1ccc(C(=O)Nc2ccc(OC(F)(F)F)cc2)cc1-c1ccc(C(C)=O)s1` [Example 36, 3-(5-Acetylthiophen-2-yl)-4-methoxy-N-(4-(trifluoromethoxy)phenyl)benzamide], the IC50 (ABL1 (64-515)) is reported as 3.4 nM.

`O=C(Nc1ccc(OC(F)(F)F)cc1)c1cccc(-c2cnccn2)c1` [Example 5, 3-(Pyrazin-2-yl)-N-(4-(trifluoromethoxy)phenyl)benzamide] gave an IC50 (ABL1 (64-515)) of 3.1 nM.

With `O=C(Nc1ccc(OC(F)(F)F)cc1)c1cccc(-c2cncnc2)c1` [Example 1, 3-(Pyrimidin-5-yl)-N-(4-(trifluoromethoxy)phenyl)benzamide] the “Mean brain (drug concentration in brain)” value [1] was 4946 pmol/g, the concentration at 5 min [1] was 1160 nM and the IC50 (Ba/F3-BCR-ABL1-WT cells; 48 h) was 150 nM.

With `O=C(Nc1ccc(OC(F)(F)F)cc1)c1ccnc(-c2cncnc2)c1` [Example 70, 2-(Pyrimidin-5-yl)-N-(4-(trifluoromethoxy)phenyl)isonicotinamide] the IC50 (ABL1 (64-515)) was 13 nM.

For `O=C(Nc1ccc(OC(F)(F)F)cc1)c1cccc(-c2cnc(OCCO)nc2)c1` [Example 2, 3-(2-(2-Hydroxyethoxy)pyrimidin-5-yl)-N-(4-(trifluoromethoxy)phenyl)benzamide], the IC50 (ABL1 (64-515)) was 6.5 nM.
